Tested on: miR-142^−/−BCR-ABL LSKs
Method: LSKs from diseased miR-142 null and miR-142 wt BCR-ABL mice were treated with CpG-M-miR-142 (2 μM) or SCR±NIL (2 μM) for 72 h.

## Cc1cn(-c2cc(NC(=O)c3ccc(C)c(Nc4nccc(-c5cccnc5)n4)c3)cc(C(F)(F)F)c2)cn1 [NIL, nilotinib]
  apoptosis: lower apoptosis
  cell growth: higher cell growth

Reference: patent publication US20250195666A1, “MIR-142 COMPOUNDS AND USES THEREOF” (City of Hope, priority 2021, published 2025)
